PMC4216168, “Ligand Binding and Activation of PPARγ by Firemaster® 550: Effects on Adipogenesis and Osteogenesis in Vitro” (Environmental Health Perspectives, 2014)
Where two headings read alike, the source gives them in different places.

How the values were obtained:
[1] = biological target: T1, human recombinant PPARγ ligand binding domain (LBD) (Homo sapiens, UniProt P37231); test: biochemical; conditions: for binding to PPARγ LBD: over the concentration range tested (TBB 0.009–90 μM, TBPH 0.12–1,200 μM)
T1 construct: purchased Invitrogen
T1 sequence (P37231 238-503 limits assumed): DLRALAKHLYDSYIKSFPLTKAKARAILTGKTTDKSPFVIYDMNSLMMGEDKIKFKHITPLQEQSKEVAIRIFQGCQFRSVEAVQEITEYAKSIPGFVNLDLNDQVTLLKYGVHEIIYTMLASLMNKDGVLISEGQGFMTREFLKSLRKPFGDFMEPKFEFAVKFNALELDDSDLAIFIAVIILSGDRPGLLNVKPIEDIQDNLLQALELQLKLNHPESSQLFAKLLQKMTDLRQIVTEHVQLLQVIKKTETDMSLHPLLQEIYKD
Experimental: PPARγ ligand binding assay. Human PPARγ binding was quantified using the PolarScreen^TM PPARγ-Competitor Assay Kit (Invitrogen, Carlsbad, CA), according to the manufacturer’s instructions. […] Displacement of the fluorescent ligand, which has high polarization when bound to the PPARγ-LBD and low polarization when not bound, was assessed by measuring loss of fluorescence polarization using a SpectraMax M5 plate reader (Molecular Devices, Sunnyvale, CA). We calculated the IC50 (concentration required to reduce effect by 50%) and dissociation constants to compare the potency of the binding. Dissociation constants were calculated according to the following equation:
IC50/[PPARγ green] = Kd,ligand/Kd,probe,
where Kd,probe is the dissociation constant calculated from titration of 1.25 nM Fluormone™ PPARγ green with the PPARγ LBD.

[2] = parameters: method as in Patisaul et al. 2013; Roberts et al. 2012; conditions: in vivo and in vitro; ref Patisaul et al. 2013; Roberts et al. 2012; cited from earlier work
[3] = test system: constitutive androstane receptor; parameters: method as in earlier work; conditions: ref Honkakoski et al. 2004; Kojima et al. 2013; Suzuki et al. 2013; cited from earlier work
[4] = test system: primary mouse bone marrow cultures; test: Alkaline phosphatase activity in primary bone marrow cultures; conditions: 12 days; FM550 at 5 μg/mL (10 μM)
[5] = test system: Sp7 mRNA in primary mouse bone marrow cultures; test: Sp7 (Osterix) mRNA expression (qPCR) in primary bone marrow cultures; type: cell-based; conditions: 7 days
Experimental: (§2) mRNA expression. Total RNA was extracted, and genomic DNA was removed using the RNeasy Plus Mini Kit (QIAGEN, Valencia, CA). cDNA was prepared from total RNA using the GoScript™ Reverse Transcription System (Promega). All quantitative reverse-transcription polymerase chain reaction (qPCR) was performed using the GoTaq® qPCR Master Mix System (Promega). The following validated primers were purchased from Qiagen: 18s ribosomal RNA (Rn18s; QT01036875), fatty acid binding protein 4 (Fabp4; QT00091532), Sp7 transcription factor 7 [Osterix (Sp7; QT00293181)]. qPCR was performed using a 7500 Fast Real-Time PCR System (Applied Biosystems, Carlsbad, CA). Relative gene expression was determined according to the Pfaffl method ([Pfaffl 2001]), with the threshold value for Rn18s used for normalization. […] The quantification cycle value from naive, undifferentiated cultures prepared from 9-week-old male mice was used as the reference point. Data are reported as fold difference from naive.

BMS2 cells [6] = test: Lipid accumulation (Nile red) in BMS2 cells
glucocorticoid receptor = test system: glucocorticoid receptor; parameters: method as in earlier work; conditions: ref Honkakoski et al. 2004; Kojima et al. 2013; Suzuki et al. 2013; cited from earlier work
[7] = test system: primary mouse bone marrow cultures; test: Mineralization (Alizarin red) in primary bone marrow cultures; conditions: 12 days; FM550 at 5 μg/mL (10 μM)
progesterone receptor = test system: progesterone receptor; parameters: method as in earlier work; conditions: ref Honkakoski et al. 2004; Kojima et al. 2013; Suzuki et al. 2013; cited from earlier work
estrogen receptor = test system: estrogen receptor; parameters: method as in earlier work; conditions: ref Honkakoski et al. 2004; Kojima et al. 2013; Suzuki et al. 2013; cited from earlier work
pregnane X receptor = test system: pregnane X receptor; parameters: method as in earlier work; conditions: ref Honkakoski et al. 2004; Kojima et al. 2013; Suzuki et al. 2013; cited from earlier work
BMS2 cells [8] = test system: BMS2 cells
BMS2 cells [9] = test: Necrosis by dead cell protease release (CytoTox-Glo) in BMS2 cultures; conditions: 12 days; as high as 10 μg/mL (20 μM) FM550 or 20 μM TPP
Experimental: (§1) Cell viability assays. […] Apoptosis and necrosis were assessed by caspase-3 activity (Caspase-Glo® 3/7 Assay; Promega) and dead cell protease release (CytoTox-Glo™ Cytotoxicity Assay; Promega), respectively, according to the manufacturer’s instructions.

BMS2 cells [10] = conditions: 12 days; as high as 10 μg/mL (20 μM) FM550 or 20 μM TPP
Experimental: as §1

[11] = test system: primary mouse bone marrow cultures; test: Lipid accumulation (Nile red) in primary bone marrow cultures under osteogenic induction; conditions: 12 days, molar value of FM550 estimated
[12] = test system: Fabp4 mRNA in primary mouse bone marrow cultures; test: Fabp4 mRNA expression (qPCR) in primary bone marrow cultures; type: cell-based; conditions: 7 days
Experimental: as §2

[13] = test system: perilipin expression in BMS2 cells; test: Perilipin protein expression (immunoblot) in BMS2 cells; conditions: BMS2, 7 days
human PPARγ1 = human PPARγ1 (Homo sapiens, UniProt P37231); test: PPRE-luciferase reporter assay in Cos-7 cells transfected with human PPARG1 and RXRA; type: cell-based
Chain of human PPARγ1 (P19793 whole entry): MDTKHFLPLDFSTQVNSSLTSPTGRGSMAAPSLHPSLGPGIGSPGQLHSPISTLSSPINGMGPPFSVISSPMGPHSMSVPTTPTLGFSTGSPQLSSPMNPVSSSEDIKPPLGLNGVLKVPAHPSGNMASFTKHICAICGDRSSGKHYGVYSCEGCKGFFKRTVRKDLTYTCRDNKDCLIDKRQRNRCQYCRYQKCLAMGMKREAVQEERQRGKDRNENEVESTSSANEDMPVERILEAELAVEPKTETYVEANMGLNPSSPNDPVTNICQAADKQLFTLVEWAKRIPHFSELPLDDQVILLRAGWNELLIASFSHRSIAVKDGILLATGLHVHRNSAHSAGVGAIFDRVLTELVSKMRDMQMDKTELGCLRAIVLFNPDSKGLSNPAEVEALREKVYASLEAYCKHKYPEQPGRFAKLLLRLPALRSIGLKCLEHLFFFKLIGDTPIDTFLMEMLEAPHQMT
Chain of human PPARγ1 (P37231 29-505): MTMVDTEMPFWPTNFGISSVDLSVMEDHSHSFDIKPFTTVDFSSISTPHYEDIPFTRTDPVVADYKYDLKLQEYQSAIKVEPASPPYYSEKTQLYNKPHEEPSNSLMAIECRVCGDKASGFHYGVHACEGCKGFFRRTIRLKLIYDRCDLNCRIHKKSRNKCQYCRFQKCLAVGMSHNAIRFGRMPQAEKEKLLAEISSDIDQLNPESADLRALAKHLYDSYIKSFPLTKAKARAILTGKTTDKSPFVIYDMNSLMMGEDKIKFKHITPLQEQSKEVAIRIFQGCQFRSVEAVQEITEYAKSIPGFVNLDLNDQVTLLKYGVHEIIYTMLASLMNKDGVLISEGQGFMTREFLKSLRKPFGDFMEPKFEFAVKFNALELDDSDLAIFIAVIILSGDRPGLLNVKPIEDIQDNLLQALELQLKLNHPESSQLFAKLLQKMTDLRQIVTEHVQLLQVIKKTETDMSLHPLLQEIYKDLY
Description: Reporter assays. Cos-7 cells were transiently transfected with vectors containing human PPARG1 (provided by V.K. Chatterjee, University of Cambridge, Cambridge, UK) ([Gurnell et al. 2000]) and human RXRA (plasmid 8882; Addgene, Cambridge, MA) ([Tontonoz et al. 1994]), with PPRE x3-TK-luc (plasmid 1015; Addgene) ([Kim et al. 1998]) and CMV-eGFP reporter constructs using Lipofectamine2000 (Invitrogen). Cultures were cotransfected with either pcDNA3 (Invitrogen) or dominant negative human PPARG (PPARγ-DN; provided by V.K. Chatterjee). […] After 24 hr incubation, cells were lysed in Glo Lysis Buffer and mixed with Bright Glo reagent (both from Promega, Madison, WI). […] Luminescence was normalized by GFP (green fluorescent protein) fluorescence in the same well. The normalized luminescence for each well was then divided by the normalized luminescence measured in control DN-PPARγ–transfected wells to determine the fold-change from DN-control.

NIH 3T3L1 cells = test system: NIH 3T3L1 cells; parameters: method as in Springer et al. 2012; conditions: ref Springer et al. 2012; cited from earlier work
PPARγ = test system: PPARγ; parameters: method as in Springer et al. 2012; conditions: in vitro; ref Springer et al. 2012; cited from earlier work
PPARα = test system: PPARα; parameters: method as in Springer et al. 2012; conditions: in vitro; ref Springer et al. 2012; cited from earlier work

Structure (SMILES): CCCCC(CC)COC(=O)c1cc(Br)c(Br)c(Br)c1Br (centres unmarked) [TBB, tetrabromobenzoate]
- binding to PPARγ LBD [1]: did not demonstrate any binding

Structure (SMILES): CCCCC(CC)COC(=O)c1c(Br)c(Br)c(Br)c(Br)c1C(=O)OCC(CC)CCCC (centres unmarked) [TBPH, bis-(2-ethylhexyl) tetrabromophthalate]
- binding to PPARγ LBD [1]: did not demonstrate any binding
- metabolism into the monoester [2]: minimally metabolized into the monoester

Structure (SMILES): O=P(Oc1ccccc1)(Oc1ccccc1)Oc1ccccc1 [TPP, triphenyl phosphate]
- constitutive androstane receptor–mediated reporter activity [3]: activating
- alkaline phosphatase activity [4]: significantly suppressed
- Sp7 mRNA expression [5]: significant decrease in mRNA expression of Sp7
- IC50 [1]: 38 µM
- Kd [1]: 20 µM
- maximal lipid accumulation (BMS2 cells [6]; 7 days, naive-corrected, rosiglitazone at 1 μM): 614 ± 60 RFUs
- concentrations significantly inducing lipid accumulation (BMS2 cells [6]; BMS2, 7 days, molar values of FM550 and ITP estimated): ≥ 5 µM
- glucocorticoid receptor–mediated reporter activity (glucocorticoid receptor): antagonizing
- mineralization [7]: significantly suppressed only alkaline phosphatase activity
- progesterone receptor–mediated reporter activity (progesterone receptor): antagonizing
- estrogen receptor–mediated reporter activity (estrogen receptor): activating
- pregnane X receptor–mediated reporter activity (pregnane X receptor): activating
- cellularity (MTT) (BMS2 cells [8]; 24 hr, as high as 40 μg/mL (90 μM) FM550, 40 μM TPP, 40 μg/mL (100 μM) ITP): no loss of cellularity
- cellularity (MTT) (BMS2 cells [8]; 7 days, as high as 20 μg/mL (50 μM) FM550, 20 μM TPP, 10 μg/mL (30 μM) ITP): no loss of cellularity
- cellularity (MTT) (BMS2 cells [8]; 12 days, as high as 10 μg/mL (20 μM) FM550 or 20 μM TPP): no loss of cellularity
- necrotic protein release (BMS2 cells [9]): no increase in necrotic protein release
- caspase-3 activity (BMS2 cells [10]): no increase in caspase-3 activity
- concentration inducing lipid accumulation [11]: 10 µM
- Fabp4 mRNA expression [12]: significantly increased mRNA expression of Fabp4
- perilipin expression [13]: induced the expression of perilipin
- EC50 (human PPARγ1): 8 µM
- concentrations significantly inducing PPARγ-driven reporter activity (human PPARγ1; Cos7, 24 hr, molar values of FM550 and ITP estimated): ≥ 10 µM
- maximal PPARγ-driven reporter activity (human PPARγ1; fold-change from DN-control, 24 hr, rosiglitazone at 1 μM): 7.5 ± 0.7 fold

Structure (SMILES): CCCCC(CC)COC(=O)c1c(Br)c(Br)c(Br)c(Br)c1C(=O)O (centres unmarked) [mono-(2-ethylhexyl) tetrabromophthalate]
- adipocyte differentiation (NIH 3T3L1 cells): induced adipocyte differentiation
- PPARγ-mediated gene transcription (PPARγ): activated
- PPARα-mediated gene transcription (PPARα): activated
